Results reported in patent US20240368169A1 (priority 2021, published 2024).

Assays:
[1] = biological target: recombinant poly(ADP-ribose) polymerase 1 (PARP1) (Homo sapiens, UniProt P09874); assay: biochemical; conditions: inhibition of PARP1 enzyme activity, chemiluminescence
MDA-MB-436 cells = assay: Growth inhibition assay against BRCA mutant human breast cancer MDA-MB-436 cell line (CCK-8, 7 days); type: cell-based
[2] = biological target: recombinant poly(ADP-ribose) polymerase 2 (PARP2) (Homo sapiens, UniProt Q9UGN5); assay: biochemical; conditions: inhibition of PARP2 enzyme activity, chemiluminescence
recombinant poly(ADP-ribose) polymerase 2 (PARP2), sequence (Q9UGN5 whole entry): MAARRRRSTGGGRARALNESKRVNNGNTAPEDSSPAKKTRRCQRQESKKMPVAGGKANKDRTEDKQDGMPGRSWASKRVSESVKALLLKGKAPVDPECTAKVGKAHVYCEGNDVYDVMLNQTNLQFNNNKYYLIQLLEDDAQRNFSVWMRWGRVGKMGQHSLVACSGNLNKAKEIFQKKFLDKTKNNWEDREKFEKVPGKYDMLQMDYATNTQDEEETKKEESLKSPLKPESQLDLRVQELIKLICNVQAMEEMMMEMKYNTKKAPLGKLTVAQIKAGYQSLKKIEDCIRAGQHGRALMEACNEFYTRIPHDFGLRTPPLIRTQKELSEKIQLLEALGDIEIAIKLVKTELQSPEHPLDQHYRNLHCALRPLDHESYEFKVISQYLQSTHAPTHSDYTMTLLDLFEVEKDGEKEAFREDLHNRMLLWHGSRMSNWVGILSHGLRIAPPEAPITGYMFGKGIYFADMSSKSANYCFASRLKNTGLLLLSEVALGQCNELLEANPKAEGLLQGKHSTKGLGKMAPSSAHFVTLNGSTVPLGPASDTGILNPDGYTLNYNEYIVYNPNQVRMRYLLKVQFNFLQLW

[3] = system: TNKS1/2 (Tankyrase 1 or Tankyrase 2); conditions: compared with other PARP inhibitors, biochemical assay; cited from earlier work
[4] = results of clinical trials; cited from earlier work

recombinant poly(ADP-ribose) polymerase 1 (PARP1), sequence (P09874 whole entry): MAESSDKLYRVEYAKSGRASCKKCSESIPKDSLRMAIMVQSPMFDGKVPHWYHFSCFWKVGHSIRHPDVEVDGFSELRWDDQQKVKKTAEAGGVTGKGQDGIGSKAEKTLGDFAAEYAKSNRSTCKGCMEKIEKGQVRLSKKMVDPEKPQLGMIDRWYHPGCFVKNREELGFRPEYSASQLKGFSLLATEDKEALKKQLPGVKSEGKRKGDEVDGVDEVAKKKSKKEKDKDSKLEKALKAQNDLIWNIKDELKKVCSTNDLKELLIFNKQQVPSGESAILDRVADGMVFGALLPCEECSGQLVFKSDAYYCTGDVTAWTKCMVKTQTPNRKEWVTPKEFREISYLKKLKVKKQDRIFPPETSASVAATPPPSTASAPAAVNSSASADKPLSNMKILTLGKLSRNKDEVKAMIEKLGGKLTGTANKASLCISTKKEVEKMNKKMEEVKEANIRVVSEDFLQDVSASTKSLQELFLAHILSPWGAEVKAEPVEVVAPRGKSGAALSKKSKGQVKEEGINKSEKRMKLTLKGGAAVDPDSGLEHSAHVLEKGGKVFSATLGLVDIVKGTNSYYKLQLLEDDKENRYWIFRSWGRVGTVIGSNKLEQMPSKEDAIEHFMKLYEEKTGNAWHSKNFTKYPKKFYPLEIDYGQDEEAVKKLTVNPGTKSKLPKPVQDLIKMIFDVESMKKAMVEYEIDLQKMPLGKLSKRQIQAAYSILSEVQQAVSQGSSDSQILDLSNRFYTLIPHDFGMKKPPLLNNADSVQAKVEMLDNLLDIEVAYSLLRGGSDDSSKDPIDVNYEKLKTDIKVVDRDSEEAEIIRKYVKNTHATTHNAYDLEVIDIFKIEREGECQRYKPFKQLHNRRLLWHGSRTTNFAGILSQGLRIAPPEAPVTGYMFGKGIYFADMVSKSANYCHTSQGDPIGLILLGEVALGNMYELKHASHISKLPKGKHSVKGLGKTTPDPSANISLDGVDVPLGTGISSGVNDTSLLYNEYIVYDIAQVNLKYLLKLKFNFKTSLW

Row | Structure (SMILES) | IC50 [1] [nM] | IC50 (MDA-MB-436 cells) [nM] | IC50 [2] [nM] | inhibitory activity against TNKS1/2 [3] | toxicity [4]
1 | O=C(NC1CC1)c1ccc(N2CCN(Cc3cc(F)c4c(c3)[nH]c(=O)c3cccn34)CC2)c(Cl)n1 [Example 68, 7-((4-(2-chloro-6-(cyclopropylcarbamoyl)pyridin-3-yl)piperazin-1-yl)methyl)-9-fluoropyrrolo[1,2-a]quinoxalin-4(5H)-one] | 1.61 | 2.92 | 90.1 |  | 
2 | CNC(=O)c1ccc(N2CCN(Cc3ccc4c(c3)[nH]c(=O)c3c(C)ccn34)CC2)c(C)n1 [Example 56, 7-((4-(2-methyl-6-(methylcarbamoyl)pyridin-3-yl)piperazin-1-yl)methyl)-3-methylpyrrolo[1,2-a]quinoxalin-4(5H)-one] | 2.32 | 0.65 | 37.9 |  | 
3 | CNC(=O)c1ccc(N2CCN(Cc3ccc4c(c3)[nH]c(=O)c3cc(Cl)nn34)CC2)c(C)n1 [Example 100, 7-((4-(2-methyl-6-(methylcarbamoyl)pyridin-3-yl)piperazin-1-yl)methyl)-2-chloropyrazolo[1,5-a]quinoxalin-4(5H)-one] | 0.95 | 0.68 | 65.6 |  | 
4 | CNC(=O)c1ccc(N2CCN(Cc3cc(F)c4c(c3)[nH]c(=O)c3cc(C)nn34)CC2)c(F)n1 [Example 73, 7-((4-(2-fluoro-6-(methylcarbamoyl)pyridin-3-yl)piperazin-1-yl)methyl)-9-fluoro-2-methylpyrazolo[1,5-a]quinoxalin-4(5H)-one] | 1.96 | 1.77 | 78.1 |  | 
5 | CNC(=O)c1ccc(N2CCN(Cc3cc(F)c4c(c3)[nH]c(=O)c3sccc34)CC2)c(C)n1 [Example 114, 7-((4-(2-methyl-6-(methylcarbamoyl)pyridin-3-yl)piperazin-1-yl)methyl)-9-fluorothieno[2,3-c]quinolin-4(5H)-one] | 0.67 | 3.72 | 16.9 |  | 
6 | Cc1nc(C(=O)NC2CC2)ccc1N1CCN(Cc2ccc3c(c2)[nH]c(=O)c2cccn23)CC1 [Example 59, 7-((4-(2-methyl-6-(cyclopropylcarbamoyl)pyridin-3-yl)piperazin-1-yl)methyl)pyrrolo[1,2-a]quinoxalin-4(5H)-one] | 1.39 | 0.99 | 21.9 |  | 
7 | Cn1ncnc1[C@H]1c2n[nH]c(=O)c3cc(F)cc(c23)N[C@@H]1c1ccc(F)cc1 [Talazoparib] |  |  |  | more potent inhibitory activity | toxicity similar to chemotherapy drugs such as hair loss
8 | CNC(=O)c1ccc(N2CCN(Cc3ccc4c5c(c(=O)[nH]c4c3)COC5)CC2)c(Cl)n1 [Example 3, 7-((4-(2-chloro-6-(methylcarbamoyl)pyridin-3-yl)piperazin-1-yl)methyl)-3,5-dihydrofuro[3,4-c]quinolin-4(1H)-one] | 1.33 | 5.01 | 467 |  | 
9 | CNC(=O)c1ccc(N2CCN(Cc3ccc4c([nH]c(=O)c5cc(C)nn54)c3F)CC2)c(F)n1 [Example 115, 7-((4-(2-fluoro-6-(methylcarbamoyl)pyridin-3-yl)piperazin-1-yl)methyl)-6-fluoro-2-methylpyrazolo[1,5-a]quinoxalin-4(5H)-one] | 1.45 | 1.98 | 288 |  | 
10 | O=C(NC1CC1)c1ccc(N2CCN(Cc3cc(F)c4c(c3)[nH]c(=O)c3cccn34)CC2)c(F)n1 [Example 67, 7-((4-(2-fluoro-6-(cyclopropylcarbamoyl)pyridin-3-yl)piperazin-1-yl)methyl)-9-fluoropyrrolo[1,2-a]quinoxalin-4(5H)-one] | 2.02 | 2.11 | 48.2 |  | 
11 | CNC(=O)c1ccc(N2CCN(Cc3ccc4c(c3)[nH]c(=O)c3ccnn34)CC2)c(C)n1 [Example 28, 7-((4-(2-methyl-6-(methylcarbamoyl)pyridin-3-yl)piperazin-1-yl)methyl)pyrazolo[1,5-a]quinoxalin-4(5H)-one] | 0.77 | 0.98 | > 3000 |  | 
12 | CNC(=O)c1ccc(N2CCN(Cc3cc(F)c4c(c3)[nH]c(=O)c3cc(Cl)nn34)CC2)c(F)n1 [Example 88, 7-((4-(2-fluoro-6-(methylcarbamoyl)pyridin-3-yl)piperazin-1-yl)methyl)-2-chloro-9-fluoropyrazolo[1,5-a]quinoxalin-4(5H)-one] | 1.72 | 0.38 | 80.3 |  | 
13 | CNC(=O)c1ccc(N2CCN(Cc3cc(F)c4c(c3)[nH]c(=O)c3c(C)cnn34)CC2)c(C)n1 [Example 78, 7-((4-(2-methyl-6-(methylcarbamoyl)pyridin-3-yl)piperazin-1-yl)methyl)-9-fluoro-3-methylpyrazolo[1,5-a]quinoxalin-4(5H)-one] | 1.38 | 1 | 153 |  | 
14 | CNC(=O)c1ccc(N2CCN(Cc3cc(F)c4c(c3)[nH]c(=O)c3cc(Cl)nn34)CC2)c(C)n1 [Example 87, 7-((4-(2-methyl-6-(methylcarbamoyl)pyridin-3-yl)piperazin-1-yl)methyl)-2-chloro-9-fluoropyrazolo[1,5-a]quinoxalin-4(5H)-one] | 1.22 | 0.94 | 84.1 |  | 
